In assay [1] the target is Bile salt export pump (Homo sapiens, UniProt O95342). Type of assay: functional.
The target of assay [2] is T1, Cholecystokinin receptor type A (Homo sapiens, UniProt P32238).
T1 sequence (P32238 whole entry): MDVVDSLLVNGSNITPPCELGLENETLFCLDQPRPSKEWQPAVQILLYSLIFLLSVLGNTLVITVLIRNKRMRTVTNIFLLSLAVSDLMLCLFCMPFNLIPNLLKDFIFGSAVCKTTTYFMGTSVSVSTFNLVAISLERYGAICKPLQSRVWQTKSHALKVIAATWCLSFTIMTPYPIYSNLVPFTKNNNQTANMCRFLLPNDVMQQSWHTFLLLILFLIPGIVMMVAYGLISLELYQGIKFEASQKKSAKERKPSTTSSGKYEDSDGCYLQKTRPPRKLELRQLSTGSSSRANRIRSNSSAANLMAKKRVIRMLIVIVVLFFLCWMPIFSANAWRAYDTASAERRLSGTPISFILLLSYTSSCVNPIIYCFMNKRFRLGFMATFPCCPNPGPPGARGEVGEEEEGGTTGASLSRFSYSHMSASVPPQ

In assay [3] the target is Motilin receptor (Homo sapiens, UniProt O43193).
Sequence of Motilin receptor (O43193 whole entry): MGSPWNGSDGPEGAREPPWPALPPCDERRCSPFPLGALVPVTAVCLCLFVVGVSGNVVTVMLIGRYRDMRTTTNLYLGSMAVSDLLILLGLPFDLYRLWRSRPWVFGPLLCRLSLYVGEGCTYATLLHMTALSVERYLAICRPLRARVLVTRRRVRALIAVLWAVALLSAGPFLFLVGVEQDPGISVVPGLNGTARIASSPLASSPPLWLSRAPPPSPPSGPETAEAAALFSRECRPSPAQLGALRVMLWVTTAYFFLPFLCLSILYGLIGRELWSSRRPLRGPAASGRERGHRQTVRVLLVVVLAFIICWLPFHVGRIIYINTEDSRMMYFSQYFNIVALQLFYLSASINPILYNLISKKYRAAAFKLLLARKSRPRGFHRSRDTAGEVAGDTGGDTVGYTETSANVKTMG
The target in assay [4] is cGMP-inhibited 3',5'-cyclic phosphodiesterase 3A (Homo sapiens, UniProt Q14432). The format is functional.
Sequence of cGMP-inhibited 3',5'-cyclic phosphodiesterase 3A (Q14432 whole entry): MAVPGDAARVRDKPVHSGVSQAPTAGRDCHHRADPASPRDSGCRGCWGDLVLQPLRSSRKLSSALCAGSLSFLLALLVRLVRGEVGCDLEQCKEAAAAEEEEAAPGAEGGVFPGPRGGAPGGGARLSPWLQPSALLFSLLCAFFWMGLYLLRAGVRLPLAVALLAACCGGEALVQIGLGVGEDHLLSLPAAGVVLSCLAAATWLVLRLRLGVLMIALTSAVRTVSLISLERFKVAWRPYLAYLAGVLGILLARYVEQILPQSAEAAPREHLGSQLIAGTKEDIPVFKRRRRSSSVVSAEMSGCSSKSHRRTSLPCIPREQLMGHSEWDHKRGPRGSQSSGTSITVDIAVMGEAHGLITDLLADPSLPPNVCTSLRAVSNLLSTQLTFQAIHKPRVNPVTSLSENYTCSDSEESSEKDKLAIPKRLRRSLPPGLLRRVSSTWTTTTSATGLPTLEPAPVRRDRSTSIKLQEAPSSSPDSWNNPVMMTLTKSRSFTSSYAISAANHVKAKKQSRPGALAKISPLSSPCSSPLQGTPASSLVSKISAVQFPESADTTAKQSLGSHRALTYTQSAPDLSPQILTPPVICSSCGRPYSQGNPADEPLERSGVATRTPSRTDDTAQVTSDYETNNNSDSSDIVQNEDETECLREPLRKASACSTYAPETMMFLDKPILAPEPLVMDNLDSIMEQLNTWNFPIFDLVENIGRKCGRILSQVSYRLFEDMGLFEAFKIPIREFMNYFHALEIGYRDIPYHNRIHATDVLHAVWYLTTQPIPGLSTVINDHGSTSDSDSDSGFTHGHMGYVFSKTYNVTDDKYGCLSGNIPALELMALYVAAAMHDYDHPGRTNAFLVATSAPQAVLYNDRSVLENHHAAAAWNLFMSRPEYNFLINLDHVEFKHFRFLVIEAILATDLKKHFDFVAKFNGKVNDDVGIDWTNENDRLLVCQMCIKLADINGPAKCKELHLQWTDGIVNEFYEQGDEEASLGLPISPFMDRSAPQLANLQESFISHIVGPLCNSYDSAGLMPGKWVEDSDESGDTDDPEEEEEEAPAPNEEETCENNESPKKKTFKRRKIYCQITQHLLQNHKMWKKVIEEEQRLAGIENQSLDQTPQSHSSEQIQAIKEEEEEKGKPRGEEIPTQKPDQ
Assay [5] deals with Delta-type opioid receptor (Homo sapiens, UniProt P41143).
Sequence of Delta-type opioid receptor (P41143 whole entry): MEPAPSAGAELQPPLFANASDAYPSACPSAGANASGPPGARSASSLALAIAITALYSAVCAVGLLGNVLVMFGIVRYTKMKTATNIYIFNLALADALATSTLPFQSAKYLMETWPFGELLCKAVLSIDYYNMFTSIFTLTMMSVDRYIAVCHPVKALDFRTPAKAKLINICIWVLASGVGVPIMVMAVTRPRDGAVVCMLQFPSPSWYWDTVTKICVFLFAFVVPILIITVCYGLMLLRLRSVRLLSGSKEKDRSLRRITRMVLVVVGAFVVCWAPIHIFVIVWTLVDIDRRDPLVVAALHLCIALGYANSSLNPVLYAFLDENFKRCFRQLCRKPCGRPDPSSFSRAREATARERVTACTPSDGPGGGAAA
Assay [6] addresses Growth hormone secretagogue receptor type 1 (Homo sapiens, UniProt Q92847).
Assay [7] has as its target Sodium-dependent dopamine transporter (Homo sapiens, UniProt Q01959).
The target in assay [8] is T2, Equilibrative nucleoside transporter 1 (Homo sapiens, UniProt Q99808).
T2 sequence (Q99808 whole entry): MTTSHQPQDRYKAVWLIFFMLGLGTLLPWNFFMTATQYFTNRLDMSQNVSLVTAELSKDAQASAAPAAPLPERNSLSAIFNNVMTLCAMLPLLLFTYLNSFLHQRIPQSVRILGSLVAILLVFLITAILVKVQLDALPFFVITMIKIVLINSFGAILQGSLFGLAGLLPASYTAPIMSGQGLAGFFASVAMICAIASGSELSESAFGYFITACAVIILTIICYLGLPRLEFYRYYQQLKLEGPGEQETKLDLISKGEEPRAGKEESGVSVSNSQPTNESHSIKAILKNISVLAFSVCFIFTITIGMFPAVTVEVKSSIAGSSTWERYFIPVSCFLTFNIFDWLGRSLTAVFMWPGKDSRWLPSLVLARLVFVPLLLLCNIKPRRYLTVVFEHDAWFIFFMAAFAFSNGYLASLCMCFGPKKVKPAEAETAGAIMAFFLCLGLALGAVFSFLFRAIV

Assay [9] concerns the target T3, Alpha-2A adrenergic receptor (Homo sapiens, UniProt P08913).
T3 sequence (P08913 whole entry): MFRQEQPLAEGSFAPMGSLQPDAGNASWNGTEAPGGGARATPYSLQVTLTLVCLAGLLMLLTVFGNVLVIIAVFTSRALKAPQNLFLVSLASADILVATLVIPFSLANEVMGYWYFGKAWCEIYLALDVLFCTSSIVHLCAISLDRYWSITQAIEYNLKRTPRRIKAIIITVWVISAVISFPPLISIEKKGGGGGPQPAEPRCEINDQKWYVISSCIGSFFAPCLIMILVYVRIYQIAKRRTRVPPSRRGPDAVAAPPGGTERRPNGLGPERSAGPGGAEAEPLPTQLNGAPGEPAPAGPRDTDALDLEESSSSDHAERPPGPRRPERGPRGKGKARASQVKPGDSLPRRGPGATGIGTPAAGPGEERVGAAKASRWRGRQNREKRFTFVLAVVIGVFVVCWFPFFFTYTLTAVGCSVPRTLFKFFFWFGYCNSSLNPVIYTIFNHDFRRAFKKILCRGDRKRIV
The format is functional, cell-based.

The target of assay [10] is T4, 5-hydroxytryptamine receptor 1A (Homo sapiens, UniProt P08908).
T4 sequence (P08908 whole entry): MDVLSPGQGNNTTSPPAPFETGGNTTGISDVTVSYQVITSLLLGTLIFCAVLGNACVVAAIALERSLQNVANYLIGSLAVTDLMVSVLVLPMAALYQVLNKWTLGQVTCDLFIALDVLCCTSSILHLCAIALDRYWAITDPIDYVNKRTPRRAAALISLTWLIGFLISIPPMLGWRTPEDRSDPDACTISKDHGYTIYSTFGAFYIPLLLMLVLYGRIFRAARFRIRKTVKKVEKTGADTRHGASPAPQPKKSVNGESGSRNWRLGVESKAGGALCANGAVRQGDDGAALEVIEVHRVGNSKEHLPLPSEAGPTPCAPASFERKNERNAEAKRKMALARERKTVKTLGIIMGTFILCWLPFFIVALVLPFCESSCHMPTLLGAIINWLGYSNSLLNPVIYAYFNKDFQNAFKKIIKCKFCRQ
Type of assay: functional, cell-based.

In assay [11] the target is T5, Muscarinic acetylcholine receptor M2 (Homo sapiens, UniProt P08172).
T5 sequence (P08172 whole entry): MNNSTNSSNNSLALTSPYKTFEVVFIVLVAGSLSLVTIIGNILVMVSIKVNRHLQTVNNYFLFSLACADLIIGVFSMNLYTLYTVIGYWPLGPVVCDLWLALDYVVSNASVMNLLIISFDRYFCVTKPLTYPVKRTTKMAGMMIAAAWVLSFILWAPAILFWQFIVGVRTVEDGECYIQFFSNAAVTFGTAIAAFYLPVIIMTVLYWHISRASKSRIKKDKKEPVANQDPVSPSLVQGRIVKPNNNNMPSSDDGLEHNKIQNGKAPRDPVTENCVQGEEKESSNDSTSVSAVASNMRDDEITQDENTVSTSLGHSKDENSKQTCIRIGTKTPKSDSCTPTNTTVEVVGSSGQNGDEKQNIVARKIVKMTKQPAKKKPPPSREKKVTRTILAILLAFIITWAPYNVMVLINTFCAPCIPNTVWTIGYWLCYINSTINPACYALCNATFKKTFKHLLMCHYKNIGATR
The format is functional, cell-based.

Assay [12] has as its target D(1A) dopamine receptor (Homo sapiens, UniProt P21728). Type of assay: functional, cell-based.
Also: assay procedure not described here.

Sequence of Growth hormone secretagogue receptor type 1 (Q92847 whole entry): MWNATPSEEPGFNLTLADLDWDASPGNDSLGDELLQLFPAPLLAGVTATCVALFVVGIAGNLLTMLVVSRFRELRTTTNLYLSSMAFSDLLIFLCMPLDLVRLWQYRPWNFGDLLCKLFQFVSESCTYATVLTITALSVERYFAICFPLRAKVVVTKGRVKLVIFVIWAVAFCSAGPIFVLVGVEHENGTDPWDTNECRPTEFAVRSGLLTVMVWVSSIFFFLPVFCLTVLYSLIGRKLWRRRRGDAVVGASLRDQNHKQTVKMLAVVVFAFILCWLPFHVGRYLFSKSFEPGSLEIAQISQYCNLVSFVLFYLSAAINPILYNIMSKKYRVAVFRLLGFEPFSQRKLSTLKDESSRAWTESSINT
Sequence of D(1A) dopamine receptor (P21728 whole entry): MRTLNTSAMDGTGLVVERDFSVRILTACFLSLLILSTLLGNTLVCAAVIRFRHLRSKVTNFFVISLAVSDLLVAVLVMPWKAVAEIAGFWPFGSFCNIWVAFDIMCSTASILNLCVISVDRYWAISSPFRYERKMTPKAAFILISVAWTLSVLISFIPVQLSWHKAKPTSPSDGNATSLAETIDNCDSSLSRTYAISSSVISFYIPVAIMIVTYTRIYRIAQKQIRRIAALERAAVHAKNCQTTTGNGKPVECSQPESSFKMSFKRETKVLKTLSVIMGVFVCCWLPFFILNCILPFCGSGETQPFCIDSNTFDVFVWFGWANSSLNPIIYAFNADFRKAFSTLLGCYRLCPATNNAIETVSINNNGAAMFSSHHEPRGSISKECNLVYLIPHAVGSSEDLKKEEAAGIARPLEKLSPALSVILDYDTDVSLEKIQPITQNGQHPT
Sequence of Bile salt export pump (O95342 whole entry): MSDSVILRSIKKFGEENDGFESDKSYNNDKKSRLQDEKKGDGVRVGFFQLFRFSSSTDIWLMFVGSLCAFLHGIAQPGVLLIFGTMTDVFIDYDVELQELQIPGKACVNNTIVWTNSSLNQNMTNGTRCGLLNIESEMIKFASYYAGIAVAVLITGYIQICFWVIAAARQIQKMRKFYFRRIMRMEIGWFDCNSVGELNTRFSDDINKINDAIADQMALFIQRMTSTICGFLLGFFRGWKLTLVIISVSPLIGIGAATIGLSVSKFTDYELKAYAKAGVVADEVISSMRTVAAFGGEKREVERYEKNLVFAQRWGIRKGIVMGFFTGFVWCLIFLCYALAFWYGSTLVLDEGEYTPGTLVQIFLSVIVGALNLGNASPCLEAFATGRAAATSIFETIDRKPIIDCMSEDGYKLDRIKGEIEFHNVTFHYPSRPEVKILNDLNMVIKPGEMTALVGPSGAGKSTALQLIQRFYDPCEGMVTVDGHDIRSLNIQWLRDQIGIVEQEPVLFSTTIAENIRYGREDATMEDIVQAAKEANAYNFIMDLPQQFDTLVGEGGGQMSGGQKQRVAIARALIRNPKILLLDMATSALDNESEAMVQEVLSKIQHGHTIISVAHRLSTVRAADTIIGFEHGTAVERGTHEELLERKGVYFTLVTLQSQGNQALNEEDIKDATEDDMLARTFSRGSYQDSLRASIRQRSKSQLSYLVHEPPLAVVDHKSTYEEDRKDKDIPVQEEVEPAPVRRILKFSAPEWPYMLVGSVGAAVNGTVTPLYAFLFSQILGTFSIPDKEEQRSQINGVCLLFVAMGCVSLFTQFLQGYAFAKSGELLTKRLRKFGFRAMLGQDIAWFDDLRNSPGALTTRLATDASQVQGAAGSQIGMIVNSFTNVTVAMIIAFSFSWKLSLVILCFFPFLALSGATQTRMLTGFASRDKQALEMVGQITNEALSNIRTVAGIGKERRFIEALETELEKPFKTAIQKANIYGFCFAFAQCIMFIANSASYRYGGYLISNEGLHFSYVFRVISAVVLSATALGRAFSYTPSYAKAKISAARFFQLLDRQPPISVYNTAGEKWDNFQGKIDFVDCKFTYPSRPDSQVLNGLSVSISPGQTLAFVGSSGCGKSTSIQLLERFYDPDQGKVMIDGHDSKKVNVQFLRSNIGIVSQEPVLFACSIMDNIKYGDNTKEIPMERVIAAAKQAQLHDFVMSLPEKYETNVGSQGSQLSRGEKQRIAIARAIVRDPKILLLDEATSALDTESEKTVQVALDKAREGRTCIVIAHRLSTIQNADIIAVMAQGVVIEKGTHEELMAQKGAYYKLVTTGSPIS
Sequence of Sodium-dependent dopamine transporter (Q01959 whole entry): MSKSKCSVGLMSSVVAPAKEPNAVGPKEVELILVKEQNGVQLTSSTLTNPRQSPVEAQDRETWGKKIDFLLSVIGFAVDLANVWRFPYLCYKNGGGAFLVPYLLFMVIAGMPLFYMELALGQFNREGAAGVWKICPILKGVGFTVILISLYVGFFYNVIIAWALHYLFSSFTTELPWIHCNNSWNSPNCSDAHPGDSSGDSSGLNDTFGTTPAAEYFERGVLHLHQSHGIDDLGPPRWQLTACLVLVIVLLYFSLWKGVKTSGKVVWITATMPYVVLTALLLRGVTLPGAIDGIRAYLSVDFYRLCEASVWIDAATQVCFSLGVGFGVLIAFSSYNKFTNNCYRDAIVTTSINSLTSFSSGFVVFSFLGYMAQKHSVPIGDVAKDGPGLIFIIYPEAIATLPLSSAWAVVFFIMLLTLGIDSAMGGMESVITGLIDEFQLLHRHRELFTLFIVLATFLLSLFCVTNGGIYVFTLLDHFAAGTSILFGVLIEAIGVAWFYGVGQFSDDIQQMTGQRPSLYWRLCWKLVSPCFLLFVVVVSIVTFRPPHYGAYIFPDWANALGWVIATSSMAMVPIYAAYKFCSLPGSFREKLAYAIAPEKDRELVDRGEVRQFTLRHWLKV

`O=C1c2c(O)c(=O)ccn2N([C@@H]2c3ccccc3SCc3c2ccc(F)c3F)[C@@H]2COCCN12` [BALOXAVIR]: in [1], the AC50 is 24 µM.

Take `COc1cc(Nc2c(C#N)cnc3cc(OCCCN4CCN(C)CC4)c(OC)cc23)c(Cl)cc1Cl` [BOSUTINIB]: the concentration at half-maximal activity (AC50) in assay [2] was greater than 30 µM; in assay [3], greater than 10 µM; in assay [4] it was greater than 30 µM; in assay [5], greater than 10 µM; in assay [6], 4.3 µM; in [7], 8.75 µM. Further, the AC50 in assay [8] came to 32.5 µM.

For `Cc1cc(O)cc(C)c1Cl` [CHLOROXYLENOL], the AC50 in assay [1] was greater than 300 µM.

For the molecule `CN(C)CCCN1c2ccccc2CCc2ccc(Cl)cc21` [CLOMIPRAMINE], the half-maximal activity concentration (AC50) is greater than 10 µM in assay [9]; greater than 30 µM in assay [10]; greater than 30 µM in assay [5]; greater than 10 µM in assay [11]; 14.6 µM in assay [7].

As to `CC(=O)OCC(=O)[C@@]1(O)CC[C@H]2[C@@H]3CCC4=CC(=O)CC[C@]4(C)[C@H]3C(=O)C[C@@]21C` [CORTISONE ACETATE], the concentration at half-maximal activity (AC50) in assay [10] was greater than 30 µM; in assay [5], greater than 30 µM; in assay [1], greater than 300 µM.

For the molecule `COc1cc2c(cc1OC)C(=O)C(CC1CCN(Cc3ccccc3)CC1)C2` (configuration not stated) [DONEPEZIL], the AC50 in [9] is greater than 10 µM; in assay [2] it was greater than 30 µM; in assay [12], greater than 10 µM; in [3], greater than 10 µM; in assay [4] it was greater than 30 µM; in assay [5] it was greater than 30 µM. The concentration at half-maximal activity (AC50) in [6] was greater than 30 µM; in assay [1], greater than 300 µM; in [7], greater than 30 µM; in assay [8], greater than 30 µM.

For the molecule `CCC(=O)O[C@H]1[C@H](O[C@@H]2[C@@H](C)[C@H](O[C@H]3C[C@@](C)(OC)[C@@H](O)[C@H](C)O3)[C@@H](C)C(=O)O[C@H](CC)[C@@](C)(O)[C@H](O)[C@@H](C)C(=O)[C@H](C)C[C@@]2(C)O)O[C@H](C)C[C@@H]1N(C)C` [ERYTHROMYCIN PROPIONATE], the AC50 in assay [1] was greater than 300 µM.

As for `CCOC(=O)c1ccc(O)cc1` [ETHYLPARABEN], in assay [1], the half-maximal activity concentration (AC50) was greater than 300 µM.

Regarding `O=C(COc1ccc(Cl)cc1)N1CCN(Cc2ccc3c(c2)OCO3)CC1` [FIPEXIDE], the concentration at half-maximal activity (AC50) in assay [1] came to 48 µM.

On to `Cc1c(-c2ccccc2)oc2c(C(=O)OCCN3CCCCC3)cccc2c1=O` [FLAVOXATE], for which the AC50 in [1] worked out at 220 µM.

For `CC(C)C(=O)Nc1ccc([N+](=O)[O-])c(C(F)(F)F)c1` [FLUTAMIDE], the concentration at half-maximal activity (AC50) in assay [9] was greater than 10 µM; in assay [2] it was greater than 30 µM; in [12], greater than 30 µM; in assay [10], greater than 10 µM; in assay [3] it was greater than 30 µM; in assay [4] it was greater than 10 µM. Besides, the half-maximal activity concentration (AC50) was greater than 30 µM in assay [5]; greater than 10 µM in assay [11]; greater than 30 µM in assay [6]; greater than 10 µM in assay [7]; greater than 10 µM in assay [8].

With `C#C[C@]1(O)CC[C@H]2[C@@H]3CCC4=CC(=O)CC[C@@H]4[C@H]3CC[C@@]21CC` [LEVONORGESTREL], the concentration at half-maximal activity (AC50) in [1] was determined as 94 µM.

Turning to `OC[C@@H](O)[C@@H](O)[C@H](O)[C@H](O)CO` [MANNITOL], in [1], the AC50 was greater than 300 µM.

As to `CN1CCCC(CN2c3ccccc3Sc3ccccc32)C1` (configuration not stated) [MEPAZINE], in assay [1], the concentration at half-maximal activity (AC50) came out at 100 µM.

`Sc1ncnc2nc[nH]c12` [MERCAPTOPURINE ANHYDROUS]: the half-maximal activity concentration (AC50) in assay [1] is greater than 300 µM.

As for `C[N+]1(C)[C@@H]2C[C@@H](OC(=O)[C@H](CO)c3ccccc3)C[C@H]1[C@@H]1O[C@@H]12` [METHSCOPOLAMINE], the concentration at half-maximal activity (AC50) in [1] is greater than 300 µM.

Turning to `O=C1CC[C@@]2(O)[C@H]3Cc4ccc(O)c5c4[C@@]2(CCN3CC2CC2)[C@H]1O5` [NALTREXONE], the AC50 in [1] is greater than 300 µM.

For `CCc1nn(CCCN2CCN(c3cccc(Cl)c3)CC2)c(=O)n1CCOc1ccccc1` [NEFAZODONE], the AC50 is 13.3 µM in assay [2]; 2 µM in assay [10]; greater than 10 µM in [3]; greater than 10 µM in assay [4]; greater than 10 µM in assay [5]; greater than 30 µM in assay [6]. In addition, the half-maximal activity concentration (AC50) in assay [1] stood at 6 µM; in [8] it was 19.2 µM.

For `OCCN1CCN(CCCN2c3ccccc3C=Cc3ccccc32)CC1` [OPIPRAMOL], the AC50 in [9], in assay [2], in assay [12], in [10], in assay [3] and in assay [4] was greater than 30 µM each time. Further, the AC50 in assay [5], in [11], in assay [6], in assay [7] and in assay [8] was greater than 30 µM throughout.

`CC(N/C(=N\C#N)Nc1ccncc1)C(C)(C)C` (configuration not stated) [PINACIDIL ANHYDROUS]: the AC50 in [1] came to 290 µM.

Regarding `CC(O)CO` (configuration not stated) [PROPYLENE GLYCOL], in assay [1], the AC50 is greater than 300 µM.

Consider `CN(C)C(=O)Oc1ccc[n+](C)c1` [PYRIDOSTIGMINE], for which the concentration at half-maximal activity (AC50) in assay [1] was greater than 300 µM.

In the case of `O=C(NC[C@H]1CN(c2ccc(N3CCOCC3=O)cc2)C(=O)O1)c1ccc(Cl)s1` [RIVAROXABAN], the concentration at half-maximal activity (AC50) in [9], in assay [12], in [10], in [4], in [5] and in assay [11] was greater than 30 µM each time. Further, the figures for the concentration at half-maximal activity (AC50) in assay [1] and in assay [7] were 100 µM and greater than 30 µM, respectively.

In the case of `Cc1cc2c(cc1CC(=O)c1sccc1S(=O)(=O)Nc1onc(C)c1Cl)OCO2` [SITAXENTAN], the AC50 in assay [1] amounted to 9.7 µM.

Consider `CC(C)OC(=O)[C@H](C)N[P@](=O)(OC[C@H]1O[C@@H](n2ccc(=O)[nH]c2=O)[C@](C)(F)[C@@H]1O)Oc1ccccc1` [SOFOSBUVIR], for which the AC50 in assay [1] was found to be 270 µM.

Regarding `CC(=O)OC[C@H]1O[C@@H](n2ccc(=O)[nH]c2=O)[C@H](OC(C)=O)[C@@H]1OC(C)=O` [URIDINE TRIACETATE], the half-maximal activity concentration (AC50) in [1] was greater than 300 µM.

Take `CCOC(=O)N[C@@H]1CC[C@@H]2[C@@H](C1)C[C@H]1C(=O)O[C@H](C)[C@H]1[C@H]2/C=C/c1ccc(-c2cccc(F)c2)cn1` [VORAPAXAR]: the AC50 in [1] was found to be 2.2 µM.

The record behind these values is ChEMBL document CHEMBL5291721, “A preclinical secondary pharmacology resource illuminates target-adverse drug reaction associations of marketed drugs” (Nat Commun, 2023).
